Results on nine compounds are retold here after ChEMBL document CHEMBL1201862, “PubChem BioAssay data set” (2004).

Assay [1] has as its target Voltage-dependent T-type calcium channel subunit alpha-1H (Homo sapiens, UniProt O95180). Type of assay: functional.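 Further: channel activity triggered by adding a high calcium stimulation buffer.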
Assay [2] has as its target T1, Long-chain-fatty-acid--AMP ligase FadD28 (Mycobacterium tuberculosis, UniProt P9WQ59).
T1 sequence (P9WQ59 whole entry): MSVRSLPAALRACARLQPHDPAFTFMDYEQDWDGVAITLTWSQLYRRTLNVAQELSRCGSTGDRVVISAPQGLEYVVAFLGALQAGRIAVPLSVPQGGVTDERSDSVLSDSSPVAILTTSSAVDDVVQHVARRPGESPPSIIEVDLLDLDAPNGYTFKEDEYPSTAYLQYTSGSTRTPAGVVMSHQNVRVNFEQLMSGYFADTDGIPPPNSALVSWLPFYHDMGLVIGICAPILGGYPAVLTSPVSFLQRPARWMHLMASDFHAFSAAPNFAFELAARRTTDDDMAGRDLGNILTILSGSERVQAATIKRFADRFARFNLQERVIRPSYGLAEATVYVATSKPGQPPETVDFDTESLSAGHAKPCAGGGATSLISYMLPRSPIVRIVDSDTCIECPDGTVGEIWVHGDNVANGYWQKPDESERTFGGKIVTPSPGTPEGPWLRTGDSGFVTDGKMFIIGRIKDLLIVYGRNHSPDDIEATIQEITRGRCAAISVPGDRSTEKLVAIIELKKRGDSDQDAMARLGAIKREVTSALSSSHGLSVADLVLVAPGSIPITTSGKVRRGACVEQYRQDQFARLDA
As to the kind of experiment: Fluorescence polarization aasay to screen for inhibitors that compete for the binding of FadD28 to a bisubstrate Measured in Biochemical System Using Plate Reader - 2147-01_Inhibitor_Dose_CherryPick_Activity. Type of assay: functional, Mycobacterium tuberculosis H37Rv.

The nature of assay [3]: inhibitors of HIV Env-driven cell fusion, dose response, cherry-pick (AID 652057). Format: functional, cell-based.
A short description of assay [4]: off-target signal loss in HeLa-CEM21 co-culture – HeLa F-luc CTL cells, cherry-picked, counter-screen for HIV-1 Env fusion inhibitor project, dose response (AID 652040).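 Further: potency for signal decrease marking cytotoxic or nonspecific inhibition.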 Type of assay: functional, cell-based. (In general: The purpose of a counterscreen is to sort out artefacts and off-target activity.)
Assay [5] in a line: inhibitors of clade B AD8 Env fusion, dose response, cell-based, cherry-pick (AID 652062).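 Further: luciferase signal from cell-cell fusion driven by HIV-1 clade B AD8 Env; potency is for inhibitors of fusion seen as a drop in luminescence.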 Type of assay: functional.
Assay [6] deals with T2, Fatty acid synthase (Homo sapiens, UniProt P49327). Nature of the assay: FAS thioesterase domain inhibitors, dose response, biochemical, endpoint fluorescence intensity, uHTS hits (AID 624327).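 Further: fluorescence from hydrolysis of an O-methyl fluorescein acyl ester substrate by the enzyme.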 Format: functional.
T2 sequence (P49327 whole entry, the tested form may be a part): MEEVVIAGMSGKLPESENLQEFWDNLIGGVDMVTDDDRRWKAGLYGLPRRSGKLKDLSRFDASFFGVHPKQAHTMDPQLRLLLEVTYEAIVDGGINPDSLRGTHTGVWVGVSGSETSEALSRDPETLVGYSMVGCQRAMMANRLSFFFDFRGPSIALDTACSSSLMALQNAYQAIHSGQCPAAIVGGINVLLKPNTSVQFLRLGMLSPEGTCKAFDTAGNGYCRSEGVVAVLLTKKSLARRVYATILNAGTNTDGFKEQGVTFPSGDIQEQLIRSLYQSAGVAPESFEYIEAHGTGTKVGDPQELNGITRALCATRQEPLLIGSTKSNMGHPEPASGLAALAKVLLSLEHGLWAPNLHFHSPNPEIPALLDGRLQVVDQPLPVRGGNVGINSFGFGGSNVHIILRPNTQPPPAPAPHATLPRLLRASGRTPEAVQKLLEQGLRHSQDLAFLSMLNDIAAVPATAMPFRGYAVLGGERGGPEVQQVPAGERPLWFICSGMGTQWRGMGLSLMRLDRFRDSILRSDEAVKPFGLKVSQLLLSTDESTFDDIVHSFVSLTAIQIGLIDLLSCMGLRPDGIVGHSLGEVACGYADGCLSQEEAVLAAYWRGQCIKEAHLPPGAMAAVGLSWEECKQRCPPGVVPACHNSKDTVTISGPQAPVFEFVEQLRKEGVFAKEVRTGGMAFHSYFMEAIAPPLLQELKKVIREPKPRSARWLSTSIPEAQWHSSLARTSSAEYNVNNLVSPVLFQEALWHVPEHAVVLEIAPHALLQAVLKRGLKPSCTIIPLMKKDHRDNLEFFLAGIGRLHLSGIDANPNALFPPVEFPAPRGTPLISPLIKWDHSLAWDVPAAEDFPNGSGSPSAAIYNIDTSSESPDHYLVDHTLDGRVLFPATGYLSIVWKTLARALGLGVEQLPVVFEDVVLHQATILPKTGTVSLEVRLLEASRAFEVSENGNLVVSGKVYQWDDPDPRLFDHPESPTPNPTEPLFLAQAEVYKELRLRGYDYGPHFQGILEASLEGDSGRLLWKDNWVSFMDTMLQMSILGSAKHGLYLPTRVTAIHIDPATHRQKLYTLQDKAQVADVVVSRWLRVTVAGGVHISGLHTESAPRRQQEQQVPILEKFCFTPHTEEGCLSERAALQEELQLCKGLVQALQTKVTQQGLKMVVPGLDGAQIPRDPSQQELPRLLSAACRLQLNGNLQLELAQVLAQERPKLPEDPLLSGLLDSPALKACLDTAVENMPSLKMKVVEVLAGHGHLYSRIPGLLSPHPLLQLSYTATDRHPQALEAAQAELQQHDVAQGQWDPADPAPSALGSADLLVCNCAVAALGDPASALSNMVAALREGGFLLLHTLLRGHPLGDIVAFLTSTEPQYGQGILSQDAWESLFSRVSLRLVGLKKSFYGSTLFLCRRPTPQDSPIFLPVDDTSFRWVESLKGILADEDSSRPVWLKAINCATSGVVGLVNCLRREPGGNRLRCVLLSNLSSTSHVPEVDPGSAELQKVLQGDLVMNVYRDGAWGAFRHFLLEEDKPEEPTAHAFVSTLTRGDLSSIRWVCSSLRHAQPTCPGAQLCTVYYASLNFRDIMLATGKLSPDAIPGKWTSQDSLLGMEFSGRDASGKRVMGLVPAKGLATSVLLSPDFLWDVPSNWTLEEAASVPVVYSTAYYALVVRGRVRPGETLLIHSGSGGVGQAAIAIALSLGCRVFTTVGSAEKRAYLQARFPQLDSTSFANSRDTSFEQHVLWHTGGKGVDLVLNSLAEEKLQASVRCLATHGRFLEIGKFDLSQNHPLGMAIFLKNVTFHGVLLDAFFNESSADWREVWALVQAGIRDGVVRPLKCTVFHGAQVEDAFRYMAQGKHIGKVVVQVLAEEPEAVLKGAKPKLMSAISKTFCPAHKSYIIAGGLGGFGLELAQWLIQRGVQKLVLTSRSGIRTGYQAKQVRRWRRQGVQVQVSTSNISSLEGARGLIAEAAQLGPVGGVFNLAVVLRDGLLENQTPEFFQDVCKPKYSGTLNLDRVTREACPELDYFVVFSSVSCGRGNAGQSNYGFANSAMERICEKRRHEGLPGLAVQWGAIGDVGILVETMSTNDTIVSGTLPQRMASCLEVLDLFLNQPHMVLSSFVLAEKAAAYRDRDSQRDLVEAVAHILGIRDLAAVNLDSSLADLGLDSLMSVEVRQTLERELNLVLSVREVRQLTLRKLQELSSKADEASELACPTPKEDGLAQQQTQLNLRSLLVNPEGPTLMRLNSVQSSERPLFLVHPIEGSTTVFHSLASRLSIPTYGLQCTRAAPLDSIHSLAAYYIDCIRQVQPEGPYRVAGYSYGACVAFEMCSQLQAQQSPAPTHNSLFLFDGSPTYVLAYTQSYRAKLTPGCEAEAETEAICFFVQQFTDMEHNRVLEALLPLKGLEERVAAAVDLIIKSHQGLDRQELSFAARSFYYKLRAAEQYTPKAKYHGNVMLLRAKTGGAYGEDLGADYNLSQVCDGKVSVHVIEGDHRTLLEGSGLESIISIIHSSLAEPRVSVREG
Assay [7] deals with T2, Fatty acid synthase. Nature of the assay: FAS thioesterase domain inhibitors, dose response, biochemical, kinetic fluorescence intensity (AID 624326).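 Further: rate of fluorescence rise from hydrolysis of a fluorogenic O-methyl fluorescein ester substrate.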 Format: functional.
In assay [8] the target is Kallikrein-7 (Homo sapiens, UniProt P49862). Nature of the assay: Fluorescence Intensity-based biochemical primary high throughput dose response assay to identify activators of kallikrein-7 (K7) zymogen.
Kallikrein-7, sequence (P49862 whole entry): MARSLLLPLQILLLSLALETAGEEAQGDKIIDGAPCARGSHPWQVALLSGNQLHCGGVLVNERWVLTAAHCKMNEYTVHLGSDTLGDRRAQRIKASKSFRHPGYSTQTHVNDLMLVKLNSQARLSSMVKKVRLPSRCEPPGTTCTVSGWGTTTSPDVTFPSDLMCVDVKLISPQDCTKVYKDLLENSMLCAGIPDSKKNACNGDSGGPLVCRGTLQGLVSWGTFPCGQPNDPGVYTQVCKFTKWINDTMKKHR
The target in assay [9] is T3, Leucine aminopeptidase (Plasmodium falciparum 3D7, UniProt Q8IL11).
T3 sequence (Q8IL11 whole entry): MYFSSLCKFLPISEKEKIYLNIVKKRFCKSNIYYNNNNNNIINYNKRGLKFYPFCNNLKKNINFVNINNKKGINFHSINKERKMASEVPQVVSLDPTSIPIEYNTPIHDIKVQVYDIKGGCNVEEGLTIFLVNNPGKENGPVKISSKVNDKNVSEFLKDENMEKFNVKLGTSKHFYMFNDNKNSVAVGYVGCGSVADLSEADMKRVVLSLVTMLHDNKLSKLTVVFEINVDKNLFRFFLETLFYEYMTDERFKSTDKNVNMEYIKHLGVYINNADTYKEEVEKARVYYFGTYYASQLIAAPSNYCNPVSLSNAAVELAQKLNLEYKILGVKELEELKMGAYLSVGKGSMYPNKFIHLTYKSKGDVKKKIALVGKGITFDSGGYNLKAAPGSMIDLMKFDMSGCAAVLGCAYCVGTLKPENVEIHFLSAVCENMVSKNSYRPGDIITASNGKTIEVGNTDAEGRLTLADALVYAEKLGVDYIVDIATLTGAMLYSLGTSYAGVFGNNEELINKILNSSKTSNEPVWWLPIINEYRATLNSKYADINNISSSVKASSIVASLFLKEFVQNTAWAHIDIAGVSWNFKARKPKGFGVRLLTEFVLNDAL
As to the kind of experiment: P. falciparum M17LAP inhibitors, primary screen, biochemical, fluorogenic H-Leu-NHMec substrate, 1536-well (AID 1619). Format: functional.

A short description of assay [10]: THP-1 cell cytotoxicity, dose response, cytotoxicity control for non-replicating M. tuberculosis project (AID 489025). Type of assay: functional.
In assay [11] the test system is HEK293. Nature of the assay: HEK293T cell cytotoxicity, dose response, cytotoxicity control, ATP luminescence, cherry-pick samples (AID 687005).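 Further: cells exposed to compound for 48 hours.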 Type of assay: functional, cell-based. Particulars: Homo sapiens.
Assay [12] is described as follows: HEK293 Cytotoxicity Assay Measured in Cell-Based System Using Plate Reader - 7071-01_Inhibitor_Dose_CherryPick_Activity_Set2. Type of assay: functional.

Each structure is given as a SMILES string. The source made the active and inactive calls.

Voltage-dependent T-type calcium channel subunit alpha-1H, sequence (O95180 whole entry): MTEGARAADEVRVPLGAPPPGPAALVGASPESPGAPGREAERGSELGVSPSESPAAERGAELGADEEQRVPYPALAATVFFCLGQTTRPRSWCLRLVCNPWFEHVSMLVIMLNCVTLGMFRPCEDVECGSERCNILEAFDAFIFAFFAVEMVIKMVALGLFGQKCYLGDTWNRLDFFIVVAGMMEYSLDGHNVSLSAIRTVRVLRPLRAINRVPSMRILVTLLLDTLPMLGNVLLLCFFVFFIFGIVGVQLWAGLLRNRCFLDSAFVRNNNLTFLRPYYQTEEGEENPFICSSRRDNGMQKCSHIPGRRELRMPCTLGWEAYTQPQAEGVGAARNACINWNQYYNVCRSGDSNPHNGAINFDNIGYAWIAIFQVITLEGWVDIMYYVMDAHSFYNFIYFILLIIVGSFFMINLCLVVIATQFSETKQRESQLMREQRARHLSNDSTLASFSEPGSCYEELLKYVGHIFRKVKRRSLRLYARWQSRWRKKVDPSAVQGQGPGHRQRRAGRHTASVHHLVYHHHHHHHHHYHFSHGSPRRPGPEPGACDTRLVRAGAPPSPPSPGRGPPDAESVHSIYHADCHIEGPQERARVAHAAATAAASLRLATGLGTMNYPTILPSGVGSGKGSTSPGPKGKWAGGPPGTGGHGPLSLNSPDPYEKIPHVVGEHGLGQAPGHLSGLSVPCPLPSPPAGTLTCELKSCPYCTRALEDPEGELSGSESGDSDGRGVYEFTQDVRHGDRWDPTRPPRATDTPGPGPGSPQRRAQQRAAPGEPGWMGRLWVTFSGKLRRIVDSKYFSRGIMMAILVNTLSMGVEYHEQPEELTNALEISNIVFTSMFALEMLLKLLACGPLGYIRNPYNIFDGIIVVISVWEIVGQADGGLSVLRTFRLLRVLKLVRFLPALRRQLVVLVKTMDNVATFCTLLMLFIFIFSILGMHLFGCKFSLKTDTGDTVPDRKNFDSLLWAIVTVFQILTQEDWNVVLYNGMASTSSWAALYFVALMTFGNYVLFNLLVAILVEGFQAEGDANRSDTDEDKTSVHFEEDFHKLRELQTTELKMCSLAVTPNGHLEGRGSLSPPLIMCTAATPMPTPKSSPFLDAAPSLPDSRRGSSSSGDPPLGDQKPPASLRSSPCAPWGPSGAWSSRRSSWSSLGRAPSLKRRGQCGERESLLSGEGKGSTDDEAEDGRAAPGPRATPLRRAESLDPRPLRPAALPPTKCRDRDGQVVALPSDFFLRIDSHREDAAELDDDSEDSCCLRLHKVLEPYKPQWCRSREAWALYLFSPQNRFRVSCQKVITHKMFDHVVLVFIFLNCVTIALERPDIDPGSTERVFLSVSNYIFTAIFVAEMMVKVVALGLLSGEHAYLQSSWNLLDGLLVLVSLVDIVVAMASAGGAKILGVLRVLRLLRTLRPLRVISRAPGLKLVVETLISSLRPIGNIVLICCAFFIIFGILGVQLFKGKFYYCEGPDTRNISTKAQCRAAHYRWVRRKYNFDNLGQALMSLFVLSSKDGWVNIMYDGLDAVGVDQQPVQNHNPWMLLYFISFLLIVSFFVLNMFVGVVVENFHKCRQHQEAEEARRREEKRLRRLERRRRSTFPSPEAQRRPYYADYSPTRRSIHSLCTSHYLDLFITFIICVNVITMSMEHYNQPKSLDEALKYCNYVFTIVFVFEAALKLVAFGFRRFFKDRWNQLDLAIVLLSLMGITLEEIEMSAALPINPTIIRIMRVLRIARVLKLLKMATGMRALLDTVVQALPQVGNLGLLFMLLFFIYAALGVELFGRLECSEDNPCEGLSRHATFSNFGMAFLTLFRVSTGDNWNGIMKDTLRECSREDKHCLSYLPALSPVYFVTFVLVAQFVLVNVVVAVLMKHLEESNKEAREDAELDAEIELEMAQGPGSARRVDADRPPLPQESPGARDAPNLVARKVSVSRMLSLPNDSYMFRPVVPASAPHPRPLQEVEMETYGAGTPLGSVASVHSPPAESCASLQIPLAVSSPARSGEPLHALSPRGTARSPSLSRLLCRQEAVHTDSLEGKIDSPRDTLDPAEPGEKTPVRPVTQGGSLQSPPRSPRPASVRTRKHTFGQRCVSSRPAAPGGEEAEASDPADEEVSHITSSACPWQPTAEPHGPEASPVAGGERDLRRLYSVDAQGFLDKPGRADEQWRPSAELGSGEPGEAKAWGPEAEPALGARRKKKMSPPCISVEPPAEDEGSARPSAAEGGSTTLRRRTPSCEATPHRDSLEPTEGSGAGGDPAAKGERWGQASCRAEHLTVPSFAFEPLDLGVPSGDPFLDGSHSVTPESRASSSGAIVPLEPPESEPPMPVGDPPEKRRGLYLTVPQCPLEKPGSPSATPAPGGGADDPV

As usually defined, the EC50 is the concentration at which the effect is half-maximal. In general, AC50 refers to the concentration giving half of the maximal activity seen. For `Cc1ccc(CSCCNC(=O)c2ccc(Cl)c(S(=O)(=O)N3CCOCC3)c2)cc1`, the concentration for a half-maximal effect (EC50) in assay [1] is 4.41 µM (active). Further, the half-maximal activity concentration (AC50) in assay [2] is 5.54 µM (active); in assay [3], 25.3 µM (active); in assay [4] it was 54.5 µM (active); in [5], 7.44 µM (active).

As a reminder, the IC50 is the concentration that gives 50% inhibition. Regarding `O=C(COC(=O)c1cc([N+](=O)[O-])ccc1N1CCOCC1)Nc1ncc(Cl)cc1Cl`, the IC50 in [6] was 8.79 µM (active); in [7] it was 7.24 µM (active).

For `Cc1coc2c1c(C)cc1oc(=O)c(CC(=O)NCCCCCC(=O)O)c(C)c12`, the EC50 in assay [8] is > 69.5 µM (inactive).

Usually CC50 stands for the concentration that lowers cell viability or growth by half. As for `O=C(Nc1sc2c(c1C(=O)O)CCCCC2)c1ccccc1F`, in assay [9], the IC50 was 71 µM (active). In [10], the cytotoxic concentration (CC50) was > 40 µM (active). Besides, the AC50 in assay [2] is > 100 µM (inactive).

Regarding `Cc1ccc(-c2cn3cccnc3n2)cc1NC(=O)c1ccc(Br)o1`, the EC50 in assay [8] was > 69.5 µM (inactive).

As for `Cc1ccc(NC(=O)CCNS(=O)(=O)c2cc(Br)cnc2N)cc1Cl`, the IC50 was 10.3 µM (active) in assay [6] and 16.1 µM (active) in [7].

Consider `C[C@@H]1CN([C@H](C)CO)S(=O)(=O)c2ccc(C#Cc3ccccn3)cc2O[C@H]1CN(C)Cc1ccccc1`, for which the AC50 in assay [11] and in assay [12] was 5.16 µM (active) each time.

For `COC(=O)C1=C(C)N(Cc2ccccc2)C(=O)N[C@H]1c1cccc(F)c1`, the concentration at half-maximal activity (AC50) in [11] and in assay [12] was 24.6 µM (active) each time.

Turning to `COc1ccc(OC)c(/C=C/C(=O)OCC(=O)NCc2ccco2)c1`, in assay [8], the EC50 is > 69.5 µM (inactive).
